Results: US20190070170A1, “METHOD OF S[…]-1” (Macau University of Science and Technology, priority 2017, published 2019)

Assays:
COX-1 = COX-1 protein expression in LPS-activated rat peritoneal macrophages (western blotting); format: cell-based; conditions: SIN or DEX 1 h, LPS 24 h
Experimental: Sprague-Dawley (SD) rats from the University of Hong Kong were housed in cages with free access to food and water. Peritoneal macrophages of SD rats were isolated as described in Liu J. et al., Pharmacological research 2016, 111:303-315. Briefly, untreated rats were sacrificed and after laparotomy, about 50 ml cold sterile Hank's balanced salt solution (HBSS) was used to lavage the peritoneal cavity at twice, and then the peritoneal lavage fluid was collected and centrifuged at 1500 rpm for 10 min. The cell pellets was suspended at a density 1.5×10^6 cells/ml in pre-hearted DMEM medium with 10% heat-inactivated FBS, penicillin G (100 units/ml), streptomycin ([…]), and L-glutamine (2 mM), followed by seeding in 6-well plates at a density of 4.5×10^6 cells and incubation for 2 h. Then the medium were discarded to remove the non-adherent cells. The adherent cells were further washed for two times with pre-heated DMEM medium to remove floating cells. Next, cells were pre-treated with various concentration of SIN for 1 h, followed by stimulation with LPS (1 μg/ml).
(§1) Whole-cell and nuclear proteins were obtained using RIPA lysis buffer (CST, Boston, Mass., USA) and Nuclear and Cytoplasmic Extraction Reagents kit from Thermo Scientific (Asheville, N.C., USA), respectively. […] The levels of protein expression were measured using Odyssey v3.0 software from Li-COR (Lincoln, Nebr., USA).

mPGES-1 = mPGES-1 protein in microsomes of inflamed paw of carrageenan-induced rats (western blotting); format: in vivo, SD rats; conditions: SIN 25, 50, 100 mg/kg or DEX 2 mg/kg i.p.
Experimental: The model of carrageenan-induced paw edema was performed with SD rats (150-200 g). […] Briefly, rats were fasted for 12 h before experiment and intraperitoneal injection was performed with three different doses (25, 50 and 100 mg/kg) of SIN, or DEX (reference drug, 2 mg/kg) or 0.9% saline (Vehicle and Normal group rats), at 2 h prior to the induction of paw edema. Paw edema was induced by subcutaneous injection of 100 μl of 1% (w/v) freshly prepared λ-carrageenan (Sigma, St Louis, Mo., USA) diluted in saline in the right hind foot pad. 100 μl sterile saline was injected to the rats in the right hind paw as normal control.
After accomplish the experiment, rats were sacrificed by injection of dorminal, which contains 20% pentobarbital and followed by cervical dislocation. The paw tissues were removed and freshly frozen in liquid nitrogen immediately and stored at −80° C.

COX-2 = COX-2 protein expression in hind paws of CIA DBA/1 mice; format: in vivo; conditions: SIN 100 mg/kg i.p.
Experimental: Female DBA/1 mice (8-9 weeks old) were purchased from Shanghai SiLaike (SLAC) Laboratory Animal Company (Shanghai, China) and fed with a chow diet and water at room temperature. Equal volume of complete Freuend's adjuvant (CFA) and Bovine Type II Collagen (CII) were mixed and emulsified using a homogenizer (13,000 rpm) on ice. On day 0, DBA/1 mice were immunized by injecting 50 μl of CII in CFA in the tail, approximately 2 cm from the base of the tail. […] The incidence of joint swelling in each group was recorded every two days since drug treatment. […]
Frozen paws were pulverized in liquid nitrogen using a stainless steel mortar and pestle, then re-suspended in 8 volumes of ice-cold PBS from Invitrogen (San Diego, Calif., USA) with 2.6 mM DTT from Promega (Madison, Wis., USA) and 2×Complete Protease Inhibitor mixture from Roche (Mannheim, Germany), and homogenized on ice bath using a tissue homogenizer from T25 digital, IKA (Stanfen, Germany) at 10,000 rpm/min for 5 min. […] The protein concentrations were measured using a Bio-Rad protein assay kit (Hercules, Calif., USA). […]
as §1

CEBPβ (mPGES-1 promoter) = assay: ChIP assay: CEBPβ DNA binding to mPGES-1 promoter in LPS-stimulated rat peritoneal macrophages; format: cell-based; conditions: 640 μM SIN 1 h, 1 μg/ml LPS 30 min
Experimental: Rat peritoneal macrophages were pretreated with 640 μM SIN (1 h) and stimulated with 1 μg/ml LPS (30 min) before fixation at room temperature for 10 min with 1% formaldehyde. Fixation was terminated by adding glycine (to 0.125 M) with an additional incubation of 5 min, then the cells were washed twice with ice-cold PBS and harvested by scraping and centrifugation (1500 rpm for 10 min at 4° C.). Cell lysis was performed using ChIP kit from abcam (Cambridge, UK) according to the manufacturer's instructions. Briefly, cell pellets were resuspended in 1 ml Buffer B by pipetting up and down several times in a microcentrifuge tube and incubated at room temperature for 10 min. After centrifugation at 5000 rpm, the pellet was collected and resuspended in ice cold Buffer C and incubated on ice for 10 min, followed by centrifugation (5,000 rpm for 10 min at 4° C.). The pellet was mixed with 100 μl Buffer D containing protease inhibitors, incubated on ice for 10 min and sonicated for 30 cycles in a Bioruptor UCD-300 sonicator (power on high, 30 s on, 30 s off per cycle), yielding DNA fragments of 150-200 bps (the size of sonicated chromatin was checked through running 2% agarose gel). Beads were blocked overnight in PBS with 0.5% BSA and then added to the samples. […]

COC1=C[C@@H]2[C@@H]3Cc4ccc(OC)c(O)c4[C@]2(CCN3C)CC1=O [SIN, sinomenine]
COX-1 protein expression (COX-1): did not suppress | mPGES-1 protein expression in inflamed paw tissues (mPGES-1): strongly down-regulated | COX-2 expression in paw tissues (COX-2): did not produce observable changes | DNA binding of CEBPβ to the mPGES-1 promoter (CEBPβ (mPGES-1 promoter)): inhibited
